Reference: patent publication US20170143712A1, “Methods of Treating Cancers, Immune and Autoimmune Diseases, and Inflammatory Diseases Based on BTK Occupancy and BTK Resynthesis Rate” (Acerta Pharma B.V., priority 2014, published 2017)

What was measured:
S6 phosphorylation = assay: Basal and anti-IgM induced S6 phosphorylation in splenocytes after oral dosing of mice; assay type: in vivo, mouse; conditions: single oral 25 mg/kg; rank order Formula (II)>ibrutinib>Formula (XVII)
Experimental: (§1) B cell stimulation through the B cell receptor (BCR) with antibodies (e.g., anti-IgM) results in the activation of BTK and subsequent cellular changes, including the upregulation of various cell surface receptors. Measuring the inhibition of BCR induced protein phosphorylation downstream of Btk, and the inhibition of surface receptor upregulation provides a way to assess the Btk inhibitor activity. In the first study, the BTK target occupancy in splenocytes was measured over time, providing evidence for BTK resynthesis in the tissue compartment of interest.
(§2) Mice were sacrificed at 3, 6, 12, 18, and 24 hours after treatment with the BTK inhibitors (FIG. 27A, FIG. 27B, and FIG. 27C). Spleens were harvested and splenocyte preparations were made for flow cytometry analysis of B cell functions. Fresh or cryopreserved splenocytes were cultured with a-IgM to stimulate BCR, and the up-regulation of CD69, an early functional marker of B cell activation, was analyzed by flow cytometry.
A downstream marker of BTK activity, S6 phosphorylation, was also monitored in this study. […] In a second study, the effects of another inhibitor of BTK that covalently inactivates the kinase, Formula (XXI), were compared with Formula (II) to evaluate the return of BCR function and B cell activation, as illustrated in FIG. 29A and FIG. 29B.

[1] = test system: systemic lupus erythematosus (SLE) in MRL/MpJFASlpr mice; assay: MRL/MpJFASlpr mouse model of systemic lupus erythematosus; assay type: in vivo; conditions: for Histopathology Glomerulus Diameter / Histopathology Summed Score / Kidney (paired) Weight (g) / Change in Body Weight (g) wk 1-12 / Histopathology Interstitial Inflammation: mean (SE); for absolute kidney weights, reduction vs Vehicle Disease Controls / absolute mesenteric lymph node weights, reduction vs Vehicle Disease Controls: term animals
Experimental: A study designed to determine the effects of candidate anti-inflammatory agent Formula (II) in oral (PO), daily (QD) administration in the treatment of systemic lupus erythematosus (SLE) in MRL/MpJFASlpr mice. Formula (II) was preformulated in vehicle (0.4% HPMC, 0.1% Tween 80, with simethicone for antifoaming). The female MRL/MpJFASlpr mice were dosed with vehicle or Formula (II) (1, 5, or 25 mg/kg) daily (QD) by the oral (PO) route dosing, or they were dosed QD by the intraperitoneal (IP) route with the reference compound cyclophosphamide (15 mg/kg). Prior to dosing, the candidate anti-inflammatory agent was reconstituted either by vortexing or stirring. […]
Female MRL/MpJFASlpr mice (n=50) that were 8-9 weeks old and weighed approximately 28-41 grams (mean 34 g) at enrollment (mouse age approx. 12 weeks) were obtained from The Jackson Laboratory, Bar Harbor, Me. (stock number 000485). These mice were housed 3-5/cage in shoe-box polycarbonate cages with wire tops, wood chip bedding, and suspended food and water bottles. No concurrent medications were given.
When they were 12 weeks old (study day 0), the female MRL/MpJFASlpr mice (n=10/group) were randomized by body weight into 5 groups as shown above. Treatment was initiated after randomization and continued for […] (mouse age 12 weeks to 23 weeks).
Starting on study week one, and then every week thereafter urine from each animal was tested for proteinuria using the Clinitech Multistick test strip (Bayer). The animals were also observed daily for significant clinical signs, moribundity and mortality. […] Efficacy evaluation was based on animal body weights, proteinuria analysis, lymphadenopathy scores, skin lesion scores, organ weights, anti-dsDNA titers, clinical chemistry parameters, and histopathologic evaluation of the kidneys.
Any animals showing signs of morbundity were terminated immediately. At necropsy (3 h post-dose, mouse age 23 weeks), all remaining animals were anesthetized with Isoflurane and bled via cardiac puncture for serum and plasma (Li Heparin). The animals were bled to exsanguinate then euthanized by cervical dislocation. Spleens, kidneys (paired), and lymph nodes were collected and weighed. Kidneys were collected into 10% neutral buffered formalin (NBF). Spleens were placed in RPMI 1% FBS media for splenocyte isolation. Serum samples for potential clinical chemistry analysis were stored frozen at −80° C. until shipment to Antech Diagnostics. Plasma samples were stored frozen at −80° C. for mouse antidsDNA IgG analysis by ELISA.
Blood samples were drawn via cardiac puncture from Isoflurane anesthetized animals into serum separator microtainer tubes for clinical chemistries. Samples were shipped to Antech Diagnostics for analysis.

B cell receptor (BCR) = assay: Ex vivo anti-IgM induced CD86 and CD69 expression on splenocyte B cells after oral dosing of mice; assay type: in vivo, mouse; conditions: single oral 25 mg/kg
Experimental: as §1, §2

[2] = 1 mg/kg PO QD, term animals only
[3] = 5 mg/kg PO QD, term animals only
[4] = 25 mg/kg PO QD, term animals only

CC#CC(=O)N1CCC[C@H]1c1nc(-c2ccc(C(=O)Nc3ccccn3)cc2)c2c(N)nccn12 [Formula (II), (S)-4-(8-amino-3-(1-(but-2-ynoyl)pyrrolidin-2-yl)imidazo[1,5-a]pyrazin-1-yl)-N-(pyridin-2-yl)benzamide]
basal state and anti-IgM induced S6 phosphorylation (S6 phosphorylation): inhibited both basal state and anti-IgM induced S6 phosphorylation | Percent Survival ([1]; 1 mg/kg PO QD): 100% | Histopathology Glomerulus Diameter ([1]; 1 mg/kg PO QD, All Animals): *87.78 (3.82) | Histopathology Summed Score ([1]; 1 mg/kg PO QD, All Animals): 7.70 (1.07) | Kidney (paired) Weight (g) ([1]; 1 mg/kg PO QD, All Animals): 0.576 (0.03) g | Change in Body Weight (g) wk 1-12 ([1]; 1 mg/kg PO QD, Term Animals): 8.10 (0.66) g | Histopathology Glomerulus Diameter ([1]; 1 mg/kg PO QD, Term Animals): 87.78 (3.82) | Histopathology Summed Score ([1]; 1 mg/kg PO QD, Term Animals): 7.70 (1.07) | Kidney (paired) Weight (g) ([1]; 1 mg/kg PO QD, Term Animals): 0.576 (0.03) g | glomerulus diameter, reduction vs Vehicle Disease Controls ([1]; 1 mg/kg PO QD, all animals): 43% | percent of glomeruli with crescents, reduction ([1]; 1 mg/kg PO QD, all animals): 97% | serum clinical chemistries vs Vehicle Disease Controls ([1]; 1 mg/kg PO QD, all animals): significantly increased albumin (ALB), glucose (GLU), and sodium/potassium ratio (Na/K) and significantly reduced blood urea nitrogen (BUN), BUN/creatinine, phosphorus (P), potassium (K), cholesterol (CHOL), and amylase (AMY) | percent of glomeruli with crescents, reduction [1, 2]: 90% | serum clinical chemistries vs Vehicle Disease Controls [1, 2]: significantly reduced BUN and BUN/creatinine | Percent Survival ([1]; 5 mg/kg PO QD): 90% | mice that died or were sacrificed moribund prior to study termination ([1]; 5 mg/kg PO QD): 1 of 10 | Histopathology Glomerulus Diameter ([1]; 5 mg/kg PO QD, All Animals): *80.53 (5.64) | Histopathology Interstitial Inflammation ([1]; 5 mg/kg PO QD, All Animals): 1.98 (0.29) | Histopathology Summed Score ([1]; 5 mg/kg PO QD, All Animals): *5.60 (0.98) | Kidney (paired) Weight (g) ([1]; 5 mg/kg PO QD, All Animals): 0.544 (0.02) g | Change in Body Weight (g) wk 1-12 ([1]; 5 mg/kg PO QD, Term Animals): 7.01 (0.67) g | Histopathology Glomerulus Diameter ([1]; 5 mg/kg PO QD, Term Animals): *80.17 (6.29) | Histopathology Interstitial Inflammation ([1]; 5 mg/kg PO QD, Term Animals): 1.97 (0.33) | Histopathology Summed Score ([1]; 5 mg/kg PO QD, Term Animals): *5.50 (1.08) | Kidney (paired) Weight (g) ([1]; 5 mg/kg PO QD, Term Animals): *0.531 (0.02) g | glomerulus diameter, reduction ([1]; 5 mg/kg PO QD, all animals): 60% | glomerulus score, reduction ([1]; 5 mg/kg PO QD, all animals): 58% | percent of glomeruli with crescents, reduction ([1]; 5 mg/kg PO QD, all animals): 99% | protein cast score, reduction ([1]; 5 mg/kg PO QD, all animals): 92% | serum clinical chemistries vs Vehicle Disease Controls ([1]; 5 mg/kg PO QD, all animals): significantly increased ALB, GLU, calcium (CA), and Na/K and significantly reduced BUN, BUN/creatinine, K, CHOL, and AMY | summed histopathology scores, reduction ([1]; 5 mg/kg PO QD, all animals): 63% | vasculitis, reduction ([1]; 5 mg/kg PO QD, all animals): 52% | absolute kidney weights, reduction vs Vehicle Disease Controls ([1]; 5 mg/kg PO QD): 16% | absolute mesenteric lymph node weights, reduction vs Vehicle Disease Controls ([1]; 5 mg/kg PO QD): 52% | glomerulus diameter, reduction [1, 3]: 46% | percent of glomeruli with crescents, reduction [1, 3]: 98% | protein cast score, reduction [1, 3]: 90% | serum clinical chemistries vs Vehicle Disease Controls [1, 3]: significantly increased ALB, albumin/globulin ratio (A/G), GLU and Na/K and significantly reduced BUN, BUN/creatinine, and K | summed histopathology scores, reduction [1, 3]: 54% | Percent Survival ([1]; 25 mg/kg PO QD): 100% | Histopathology Glomerulus Diameter ([1]; 25 mg/kg PO QD, All Animals): *74.78 (1.62) | Histopathology Interstitial Inflammation ([1]; 25 mg/kg PO QD, All Animals): *1.53 (0.15) | Histopathology Summed Score ([1]; 25 mg/kg PO QD, All Animals): *3.88 (0.34) | Kidney (paired) Weight (g) ([1]; 25 mg/kg PO QD, All Animals): 0.511 (0.01) g | Change in Body Weight (g) wk 1-12 ([1]; 25 mg/kg PO QD, Term Animals): 6.90 (0.56) g | Histopathology Glomerulus Diameter ([1]; 25 mg/kg PO QD, Term Animals): *74.78 (1.62) | Histopathology Interstitial Inflammation ([1]; 25 mg/kg PO QD, Term Animals): *1.53 (0.15) | Histopathology Summed Score ([1]; 25 mg/kg PO QD, Term Animals): *3.88 (0.34) | Kidney (paired) Weight (g) ([1]; 25 mg/kg PO QD, Term Animals): *0.511 (0.01) g | glomerulus crescent score, reduction ([1]; 25 mg/kg PO QD, all animals): 100% | glomerulus diameter, reduction ([1]; 25 mg/kg PO QD, all animals): 73% | glomerulus score, reduction ([1]; 25 mg/kg PO QD, all animals): 76% | interstitial inflammation, reduction ([1]; 25 mg/kg PO QD, all animals): 59% | percent of glomeruli with crescents, reduction ([1]; 25 mg/kg PO QD, all animals): 100% | protein cast score, reduction ([1]; 25 mg/kg PO QD, all animals): 98% | serum clinical chemistries vs Vehicle Disease Controls ([1]; 25 mg/kg PO QD, all animals): significantly increased ALB, GLU, calcium (CA), and Na/K and significantly reduced BUN, BUN/creatinine, K, CHOL, and AMY | summed histopathology scores, reduction ([1]; 25 mg/kg PO QD, all animals): 75% | vasculitis, reduction ([1]; 25 mg/kg PO QD, all animals): 52% | urine protein scores vs Vehicle Disease Controls ([1]; 25 mg/kg PO QD, all animals, mouse age 14-15 and 21-22): significantly reduced | absolute kidney weights, reduction vs Vehicle Disease Controls ([1]; 25 mg/kg PO QD): 19% | absolute mesenteric lymph node weights, reduction vs Vehicle Disease Controls ([1]; 25 mg/kg PO QD): 49% | glomerulus crescent score, reduction [1, 4]: 100% | glomerulus diameters, reduction [1, 4]: 63% | glomerulus score, reduction [1, 4]: 72% | interstitial inflammation, reduction [1, 4]: 51% | percent of glomeruli with crescents, reduction [1, 4]: 100% | protein cast score, reduction [1, 4]: 97% | serum clinical chemistries vs Vehicle Disease Controls [1, 4]: significantly increased ALB and CA and significantly reduced BUN and BUN/creatinine | summed histopathology scores, reduction [1, 4]: 68% | vasculitis, reduction [1, 4]: 47% | urine protein scores vs Vehicle Disease Controls ([1]; 25 mg/kg PO QD, term animals only, mouse age 22): significantly reduced | anti-dsDNA IgG levels vs Vehicle Disease Controls ([1]; 1, 5 or 25 mg/kg PO QD): not significantly affected | body weight change vs Vehicle Disease Controls ([1]; 1, 5 or 25 mg/kg PO QD): did not differ significantly | cumulative lymph node weights vs Vehicle Disease Controls ([1]; 1, 5 or 25 mg/kg PO QD): did not differ significantly | lymphadenopathy scores vs Vehicle Disease Controls ([1]; 1, 5 or 25 mg/kg PO QD): not significantly affected | skin lesion scores vs Vehicle Disease Controls ([1]; 1, 5 or 25 mg/kg PO QD): not significantly affected | spleen weights vs Vehicle Disease Controls ([1]; 1, 5 or 25 mg/kg PO QD): did not differ significantly | inhibition at 25 mg/kg (B cell receptor (BCR); Mus musculus, B-cell, 3-24 hours, read-out: CD69 % inhibition over the entire time course): 84.3% | inhibition of ex vivo anti-IgM induced responses in B cells (B cell receptor (BCR); 3 hours post-dose): near complete inhibition | inhibition of CD86 and CD69 expression (B cell receptor (BCR); persisting for 24 hours): partial inhibition
